What was measured:
nerve roots = conditions: cited from earlier work
[1] = tested on: sacrococcygeal cauda equina; assay: Series-3: nerve root conduction velocity seven days after autologous nucleus pulposus application; type: in vivo; conditions: pig, systemic treatment
Method: Series-3: Thirteen pigs had autologous nucleus pulposus placed onto their sacrococcygeal cauda equina similar to series-2. Five pigs (bodyweight 25 kg) received REMICADE® (infliximab) 100 mg i.v. preoperatively, and 8 pigs received ENBREL® (etanercept) 12.5 mg s.c. preoperatively and additionally 12.5 mg s.c. three days after the operation. Seven days after the nucleus pulposus-application the nerve root conduction velocity was determined over the application zone by local electrical stimulation according to series-2. Series-3: Thirteen pigs had autologous nucleus pulposus placed onto their sacrococcygeal cauda equina similar to series-2. […] Seven days after the nucleus pulposus-application the nerve root conduction velocity was determined over the application zone by local electrical stimulation according to series-2. […] The statistical difference between the groups, infliximab, and etanercept, nucleus pulposus without treatment (positive control from previous data) and application of retroperitoneal fat (negative control from previous data) was assessed by using ANOVA and Fisher's PLSD at 5%.

[2] = tested on: inducible nitrogen oxide synthetase; conditions: cited from earlier work

COc1ccc2c(c1)c(CC(=O)O)c(C)n2C(=O)c1ccc(Cl)cc1 [indomethacin]
block of nucleus pulposus-related effects (nerve roots): slightly less efficiently

etanercept [EMBREL ®]
block of nucleus pulposus induced nerve injury (nerve conduction velocity) [1]: blocked the nucleus pulposus induced nerve injury efficiently

N=C(N)NN [Aminoguanidine]
inhibition of release of nitrogen oxide (NO) at nerve root injuries [2]: inhibit the release of nitrogen oxide (NO)

CCN(CC)CC(=O)Nc1c(C)cccc1C [lidocaine]
block of nucleus pulposus-related effects (nerve roots): slightly less efficiently

infliximab [REMICADE ®]
block of nucleus pulposus induced nerve injury (nerve conduction velocity) [1]: blocked the nucleus pulposus induced nerve injury efficiently

— patent US6635250B2, “Use of certain metalloproteinase inhibitors for treating nerve disorders mediated by nucleus pulpsus” (A+ Science AB (publ), priority 1998, dated 2003)
